# Laboratory results published in paper PMC6018403 (Frontiers in Pharmacology, 2018).
# Entries after “also recorded” stand apart in the source; their conditions may differ.
# Assays:
# in vivo = test: in vivo; parameters: species or system Sprague-Dawley rats; settings: male, Sprague-Dawley, rat, po
# Protocol: For the PK study of berberine and glycyrrhizic acid, rats were randomly divided into four groups (n = 8 for each group) before oral administration. Two groups were respectively treated with 59.4 mg/kg of berberine and 84.8 mg/kg of glycyrrhizic acid; the third group was treated with 59.4 mg/kg of berberine and 2.36 g/kg of licorice water decoction (0.5 g/mL); and the last group received 59.4 mg/kg of berberine and 84.8 mg/kg of glycyrrhizic acid. The dosage of single compounds were calculated according to their contents in the administrated GQD extract. Sample collection were the same as described for GQD. […] The plasma samples were stored at −80°C. Samples were prepared for LC/MS/MS analysis as described in our previous study (Qiao et al., [2012]), as described in Supplemental Data. LC/MS/MS calibration and quantitation data were processed with Xcalibur 2.0.7 software (ThermoFisher). The maximal plasma concentrations (Cmax) and their time of occurrence (Tmax) were obtained directly from the measured data. Other pharmacokinetic parameters were calculated by non-compartment or compartment models using WinNonlin® software (v6.1, Pharsight). Unless otherwise stated, results were expressed as the mean ± SD. Statistical significance in differences of the means was determined by Student's t–test, with a significance level of P < 0.05.
# Caco-2 cell monolayer = Caco-2 cell monolayer permeability test (bidirectional transport of berberine); format: in vitro ADME, Human; settings: BER 5 μM
# Protocol: The final concentration of GQD, GQD−GC, and Huang-Lian water extracts were 32, 28, and 6 μg/mL, respectively. […]
# containing glucose (25 mM) and HEPES (10 mM). The final concentration of berberine was 5 µM. The final concentration of DMSO was below 1% (v/v). […]
# inducer of Caco-2 cells, respectively. For the inhibitor experiments, the Caco-2 cells were cultivated in DMEM until the 21st day. After removal of the medium, the cells were incubated for 30 minutes with HBSS containing 5 µM of verapamil. For the inducer experiments, the cells were cultivated in DMEM until the 18th day, and then […]
# was removed on the 21st day, and the cells were then incubated for 30 min with HBSS.
# Berberine and glycyrrhizic acid were added to the system following HBSS incubation.
# For all bidirectional transport assays, samples (300 µL) were collected after 30, 60, 90, […]
# with an equal volume of HBSS. The samples were freeze-dried and then dissolved in 300 µL of methanol. The solutions were filtered through 0.22-µm membranes before […]
# 3. Inhibitor and inducer experiments […]
# respectively. For the inhibition experiments, Caco-2 cells were cultivated in DMEM until the 21st day. After removal of the medium, the cells were incubated for 30 minutes with HBSS containing verapamil (5 µM). For induction experiments, the cells were cultivated in DMEM until the 18th day, and then cultivated in DMEM […]
# The medium was removed on the 21st day, and the cells were then incubated for 30 min with HBSS. Berberine and glycyrrhizic acid were added to the system following HBSS incubation.
# db/db mice = test: Evaluation of anti-diabetic effects in db/db mice; format: in vivo; settings: oral, 4 weeks; for anti-diabetic effects: BER 50 mg/kg/d, GLY 80 mg/kg/d alone, 50 or 80 mg/kg/d with BER
# Protocol: Eight-week-old male db/db mice (30–35 g) were used, and the details were described in Supplemental Data. The mice were randomly divided into eight groups. Mice were orally administered with metformin (100 mg/kg/d, n = 6), berberine (50 mg/kg/d, n = 6), glycyrrhizic acid (80 mg/kg/d, n = 6), berberine (50 mg/kg/d) combined with low-dose of glycyrrhizic acid (50 mg/kg/d, n = 6), berberine (50 mg/kg/d) combined with high-dose of glycyrrhizic acid (80 mg/kg/d, n = 6), berberine (50 mg/kg/d) combined with Gan-Cao (2.2 g/kg/d, n = 7), and GQD (18.2 g/kg/d, n = 7) for 4 weeks. For the control group, the […] were administered with an equal volume of water. On day 28, after fasted for 12 h, retro-orbital blood samples were collected, stand for 1 h, and then centrifuged (6,000 rpm, 4°C) for 20 min to obtain serum. Biochemical indicators such as blood glucose and insulin were determined on a Mindray BS-800 analyzer (Mindray Bio-Medical Electronics Co.).
# Herbal materials and extracts.
# The four component herbs, Puerariae Lobatae Radix (Ge-Gen, GG), Scutellariae Radix (Huang-Qin, HQ), Coptidis Rhizoma (Huang-Lian, HL), and Glycyrrhizae Radix et Rhizoma Praeparata cum Melle (Gan-Cao, GC) were purchased from Tianheng Pharmacy. GQD was prepared by decocting the four component herbs […]
# of water for three times (1.5 h, 1.5 h, 0.5 h) to obtain the extracts, followed by a pre-extraction of Ge-Gen using 200 mL of water for 0.5 h. The decoctions were combined, filtered, and concentrated in vacuum at 50 °C. GQD-GC was prepared using the same procedure, except that Gan-Cao was removed from the formula. Final concentration of the GQD-GC extract was equivalent to 1.0 g of the crude drugs per mL. For single herb extracts, the herbs were decocted in 8-fold volume of water for three times (1.5 h, 1.5 h, 0.5 h) and then concentrated. […]
# For anti-diabetic study, Eight-week-old male db/db mice (30–35 g) were purchased from Card Vince Laboratory animal Co., Ltd. The mice were bred in a cage (318 × 202 × 135 mm) in a breeding room at 25 °C, 60 ± 5% humidity, and a 12-h dark-light […]
# On day 28, db/db mice were fasted for 12 h, and blood was collected and centrifuged to obtain serum for insulin and biochemical tests. After that, 150 µL of plasma was prepared by adding 150 µL of internal standard solution, 150 µL of methanol, and 300 µL of acetonitrile. The processing method was consistent with sample preparation for […]
# 3.1. Optimization of chromatographic separation
# Different solvents (67% methanol, and 100% methanol) were compared to effectively extract both hydrophilic and hydrophobic compounds of GQD. […]
# better extraction recovery for most compounds. […]
SMILES,increase of AUClast of berberine by GLY (in vivo),Cmax (in vivo; 59.4 mg/kg) [ng/mL],Cmax of berberine (in vivo; 59.4 mg/kg) [ng/mL],T1/2 of berberine (in vivo; 59.4 mg/kg) [h],"half-life (in vivo; 59.4 mg/kg, T1/2 of berberine) [h]","transport rate of BER, PAB (influx, apical to basolateral) (Caco-2 cell monolayer; with GLY 5 μM) [%]","transport rate of BER, PBA (efflux) (Caco-2 cell monolayer; with GLY 5 μM) [%]","transport rate of BER, PAB (influx, apical to basolateral) (Caco-2 cell monolayer; without GLY) [%]","transport rate of BER, PBA (efflux) (Caco-2 cell monolayer; without GLY) [%]",anti-diabetic effects (db/db mice; listed as BER),ALT and AST levels (liver damage) (db/db mice; serum),anti-diabetic effects (db/db mice; listed as GLY)
"COc1ccc2cc3[n+](cc2c1OC)CCc1cc2c(cc1-3)OCO2 [Compound 24, berberine]",around 6 folds,12.2 ± 4.85,117.12 ± 90.22,8.47 ± 2.90,7.53 ± 1.65,84,10,59,34,confirmed its anti-diabetic activities; also recorded: significant anti-diabetic and hypolipidemic activities,decreasing,–
"CC1(C)[C@@H](O[C@H]2O[C@H](C(=O)O)[C@@H](O)[C@H](O)[C@H]2O[C@@H]2O[C@H](C(=O)O)[C@@H](O)[C@H](O)[C@H]2O)CC[C@]2(C)[C@H]3C(=O)C=C4[C@@H]5C[C@@](C)(C(=O)O)CC[C@]5(C)CC[C@@]4(C)[C@]3(C)CC[C@@H]12 [Compound 36, glycyrrhizic acid]",–,–,–,–,–,–,–,–,–,–,–,did not show observable anti-diabetic effects
